Experimental data as given in patent publication US12419884B2, “Compositions and methods for treating iron overload” (BRIGHAM YOUNG UNIVERSITY, priority 2018, dated 2025).

system: hepcidin secretion from HepG2 cells; experiment: hepcidin secretion from IL-6 and BMP-9 inflamed HepG2 cells, Mass Spectrometry; format: cell-based; details: IL-6 and BMP-9 (10 ng/mL each), inhibitors at 10 micromolar, FIG. 9
Protocol: HepG2 cells were cultured with controls not treated with additional treatments. The remaining cells were all treated to induce inflammation IL-6 and BMP-9 (both cytokines were dosed at 10 ng/mL). Inhibitors were added at 10 micromolar to block furin and prevent the cleavage of prohepcidin to hepcidin. Hepcidin secreted into the growth media was measured by Mass Spectrometry.

SMILES	inhibition of hepcidin secretion
CC(C)c1nc(CN(C)C(=O)N[C@H](C(=O)N[C@@H](Cc2ccccc2)C[C@H](O)[C@H](Cc2ccccc2)NC(=O)OCc2cncs2)C(C)C)cs1 [Ritonavir]	small inhibitory effect
CC(C)(C)NC(=O)[C@@H]1CN(Cc2cccnc2)CCN1C[C@@H](O)C[C@@H](Cc1ccccc1)C(=O)N[C@H]1c2ccccc2C[C@H]1O [indinavir, (2S)-1-[(2S,4R)-4-benzyl-2-hydroxy-4-{[(1S,2R)-2-hydroxy-2,3-dihydro-1Hinden-1-yl]carbamoyl}butyl]-N-tert-butyl-4-(pyridin-3-ylmethyl)piperazine-2-carboxamide]	more potent response

target: furin (Homo sapiens, UniProt P09958); experiment: furin fluorescence assay / enzyme assays with purified furin; details: in vitro fluorescence assay; 55, 110 and 220 micromolar doses; FIG. 7
Sequence (P09958 108-794, species assumed): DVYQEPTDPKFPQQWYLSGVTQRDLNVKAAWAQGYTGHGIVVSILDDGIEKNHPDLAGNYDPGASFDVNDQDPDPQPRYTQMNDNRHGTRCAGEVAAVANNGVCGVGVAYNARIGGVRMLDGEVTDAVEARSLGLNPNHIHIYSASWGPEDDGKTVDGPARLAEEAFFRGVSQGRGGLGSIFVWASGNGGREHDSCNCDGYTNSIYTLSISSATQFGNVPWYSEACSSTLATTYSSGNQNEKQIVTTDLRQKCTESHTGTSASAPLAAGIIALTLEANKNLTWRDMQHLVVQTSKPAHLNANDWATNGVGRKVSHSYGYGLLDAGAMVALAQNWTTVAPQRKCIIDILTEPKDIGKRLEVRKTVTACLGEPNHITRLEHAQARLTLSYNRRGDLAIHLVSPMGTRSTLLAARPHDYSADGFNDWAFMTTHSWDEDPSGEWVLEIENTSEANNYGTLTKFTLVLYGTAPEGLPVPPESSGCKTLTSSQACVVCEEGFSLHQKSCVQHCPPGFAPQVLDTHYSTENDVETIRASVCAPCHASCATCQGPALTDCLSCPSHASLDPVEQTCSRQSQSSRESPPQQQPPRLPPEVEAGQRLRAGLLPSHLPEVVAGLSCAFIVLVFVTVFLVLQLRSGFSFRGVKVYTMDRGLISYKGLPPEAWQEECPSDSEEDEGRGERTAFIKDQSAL

SMILES	furin inhibition
CC(C)CN(C[C@@H](O)[C@H](Cc1ccccc1)NC(=O)O[C@H]1CO[C@H]2OCC[C@H]21)S(=O)(=O)c1ccc(N)cc1 [Darunavir, [(1R,5S,6R)-2,8-dioxabicyclo[3.3.0]oct-6-yl] N-[(2S,3R)-4-[(4-aminophenyl)sulfonyl-(2-methylpropyl)amino]-3-hydroxy-1-phenyl-butan-2-yl]carbamate]	most potent furin inhibition
Cc1c(O)cccc1C(=O)N[C@@H](CSc1ccccc1)[C@H](O)CN1C[C@H]2CCCC[C@H]2C[C@H]1C(=O)NC(C)(C)C [Nelfinavir, (3S,4aS,8aS)—N-tert-butyl-2-[(2R,3R)-2-hydroxy-3-[(3-hydroxy-2-methylphenyl)formamido]-4-(phenylsulfanyl)butyl]-decahydroisoquinoline-3-carboxamide]	most potent furin inhibition
CC(C)c1nc(CN(C)C(=O)N[C@H](C(=O)N[C@@H](Cc2ccccc2)C[C@H](O)[C@H](Cc2ccccc2)NC(=O)OCc2cncs2)C(C)C)cs1 [Ritonavir]	most potent furin inhibition
CC(C)(C)NC(=O)[C@@H]1CC2CCCCC2CN1C[C@@H](O)[C@H](Cc1ccccc1)NC(=O)[C@H](CC(N)=O)NC(=O)c1ccc2ccccc2n1 (stereo partly drawn) [Saquinavir, (2S)—N-[(2S,3R)-4-[(3S)-3-(tert-butylcarbamoyl)-decahydroisoquinolin-2-yl]-3-hydroxy-1-phenylbutan-2-yl]-2-(quinolin-2-yl-formamido)butanediamide]	very weak dose dependent inhibition of furin

system: hepcidin secretion from HepG2 cells; experiment: hepcidin secretion from IL-6 inflamed HepG2 cells, ELISA; format: cell-based; details: IL-6 (10 ng/mL), inhibitors at 10 ng/mL, FIG. 8
Protocol: HepG2 cells were cultured with controls not treated with additional treatments. The remaining cells were all treated to induce inflammation IL-6 (10 ng/mL). Inhibitors were added at 10 ng/mL to block furin and prevent the cleavage of prohepcidin to hepcidin. Hepcidin secreted into the growth media was measured by ELISA.

SMILES	inhibition of hepcidin secretion
COC(=O)N[C@H](C(=O)N[C@@H](Cc1ccccc1)[C@@H](O)CN(Cc1ccc(-c2ccccn2)cc1)NC(=O)[C@@H](NC(=O)OC)C(C)(C)C)C(C)(C)C [Atazanvir, methyl N-[(1S)-1-{[(2S,3S)-3-hydroxy-4-[(2S)-2-[(methoxycarbonyl)amino]-3,3-dimethyl-N′-{[4-(pyridin-2-yl)phenyl]methyl}butanehydrazido]-1-phenylbutan-2-yl]carbamoyl}-2,2-dimethylpropyl]carbamate]	showed inhibition of hepcidin secretion
Cc1cccc(C)c1OCC(=O)N[C@@H](Cc1ccccc1)[C@@H](O)C[C@H](Cc1ccccc1)NC(=O)[C@H](C(C)C)N1CCCNC1=O [Lopinavir, (2S)—N-[(2S,4S,5S)-5-[2-(2,6-dimethylphenoxy)acetamido]-4-hydroxy-1,6-diphenylhexan-2-yl]-3-methyl-2-(2-oxo-1,3-diazinan-1-yl)butanamide]	showed inhibition of hepcidin secretion
CC(C)CN(C[C@@H](OP(=O)(O)O)[C@H](Cc1ccccc1)NC(=O)O[C@H]1CCOC1)S(=O)(=O)c1ccc(N)cc1 [fosamprenavir]	showed inhibition of hepcidin secretion
